Key:
[1] = oral; cited from earlier work
[2] = acteoside versus DRA; cited from earlier work
[3] = Absorption in the body: blood concentrations by LC-MS/MS after oral administration; format: in vivo, rat; details: rats; for Cmax: male, SD (IGS), rat, 4 µmol/kg, suspension in 0.5% CMC (0.8 mM), 5 mL/kg, pooled plasma, β-glucuronidase/arylsulphatase treated, read-out: maximum blood concentration (Cmax) of the administered compound itself
Description: (§1) SD (IGS) male rats (6 weeks old) were purchased from Charles River Laboratories Japan, Inc. After the rats were acclimated to the test environment for one week, those rats which grew normally were subjected to testing. The rats were fasted overnight and divided into five groups each consisting of three rats. Rats were orally administered a 0.5% CMC solution (Group 1), a suspension of DRA in 0.5% CMC (0.8 mM) (Group 2), a suspension of purified acteoside in 0.5% CMC (0.8 mM) (Group 3), an olive oil solution (Nacalai Tesque, Inc.; Code No. 073-26) (Group 4), and a suspension of DRA in olive oil (0.8 mM) (Group 5), each at a dose of 5 mL/kg. Before administration and 0.5, 1, 3, 6, 9 and 24 hours after administration for Groups 1-3, or before administration and 1, 3, 6, 9 and 24 hours after administration for Groups 4-5, a blood sample was collected from the caudal vein in heparinized tube and was centrifuged (at 8,000 rpm for 10 min.) to obtain plasma sample. At a later date, plasma FRAP activity as well as the ORAC activity of the supernatants obtained after deproteinization with acetone were evaluated.
Among the plasma samples collected for the determination of blood antioxidative activity in Example 5, some parts of those samples from Group 1 (a 0.5% CMC solution), Group 2 (a suspension of DRA in 0.5% CMC) and Group 3 (a suspension of acteoside in 0.5% CMC) were used to determine the blood concentrations of the respective samples after administration.
After equivalent amounts of the plasma samples from the three rats in each group were mixed and homogenized, 90 μL of a helix pomatia-derived β-glucuronidase/arylsulphatase/acetate buffer (pH 5.0) was added to 90 μL of the plasma mixture and incubation was conducted at 37° C. for one hour. After 900 μL of acetonitrile was added to terminate the reaction, 10 μL of an aqueous solution of 1% ascorbic acid and 10 μL of an internal standard solution were added, and the contents were mixed and centrifuged (at 15,000 rpm for 10 min.) to recover a supernatant. The recovered supernatant was concentrated under reduced pressure, dissolved again in 50% methanol, passed through a filter, and subjected to LC-MS/MS analysis to quantify acteoside, DRA, hydroxytyrosol, and coffeic acid. The amounts of acteoside, DRA, hydroxytyrosol, and coffeic acid were determined by the ratio of each of their peak areas to the peak area of hesperidin (Wako) used as an internal standard. The LC-MS/MS analysis conditions are shown below.

SD (IGS) male rats = assay: Blood antioxidative activity (FRAP and ORAC methods) in rats after oral administration; format: in vivo, rat; details: 5 mL/kg; for blood antioxidative activity after administration: 0.8 mM suspension in 0.5% CMC or olive oil, FRAP and ORAC, up to 24 hours
Description: The influence of DRA on blood antioxidative activity was evaluated using rats. The evaluation of blood antioxidative activity was performed using the FRAP and ORAC methods. The DRA and acteoside used in this evaluation were those prepared by the same procedures as in Example 2 and Preparation Example 2, respectively.
as §1

[4] = suspension in 0.5% CMC, DRA versus acteoside

Row | SMILES | absorbability when orally ingested [1] | in vitro antioxidative activity, comparison [2] | Cmax [3] [nM] | blood antioxidative activity after administration (SD (IGS) male rats) | amount absorbed in the body relative to acteoside, by AUCs of coffeic acid [3, 4] | amount absorbed in the body relative to acteoside, by AUCs of hydroxytyrosol [3, 4] | time of earlier peak of FRAP activity after administration (SD (IGS) male rats; DRA 0.8 mM, first of bimodal peaks) [h] | time of later peak of FRAP activity after administration (SD (IGS) male rats; DRA 0.8 mM, second of bimodal peaks) [h]
1 | C[C@@H]1O[C@@H](O[C@@H]2[C@@H](O)[C@H](OCCc3ccc(O)c(O)c3)O[C@H](CO)[C@H]2OC(=O)/C=C/c2ccc(O)c(O)c2)[C@H](O)[C@H](O)[C@H]1O [acteoside] | poor absorbability | more active than DRA | < 1000 | little increase |  |  |  | 
2 | O=C(C=Cc1ccc(O)c(O)c1)O[C@@H]1C(CO)OC(OCCc2ccc(O)c(O)c2)C(O)C1O (stereo partly shown) [DRA, desrhamnosyl acteoside] |  |  | < 1000 | apparent increase | about 13 times | about 3 times | 1 to 3 | 9
